From patent US8183201B2 (priority 2006, dated 2012)
Like-named read-outs stand apart in the source and are kept apart here.

Tests used:
[1] = test system: ovariectomized (OVX) rats; conditions: rat, in vivo, po, 1.5 mg/kg
[2] = test system: ovariectomized (OVX) mice; design: species or system ICR mice; conditions: mouse, in vivo, po, 1.5 mg/kg
[3] = test system: osteoclast precursors (bone marrow hematopoietic cells); assay type: cell-based, SD rats; conditions: read-out: IC50 Osteoclastogenesis
integrin αIIbβ3 = molecular target: T1, integrin αIIbβ3 (Homo sapiens, UniProt P05106+P08514); assay type: cell-based
T1 construct: host or cells: CHO (CHO-αIIbβ3)

platelet aggregation = platelet aggregation (Homo sapiens, UniProt P05106+P08514); assay type: cell-based
integrin α5β1 = molecular target: T2, integrin α5β1 (Homo sapiens, UniProt P05556+P08648); assay type: cell-based
T2 construct: Human erythroleukemia K562 cells were purchased from ATCC; host or cells: K562
T2 sequence (P08648 42-894 limits assumed): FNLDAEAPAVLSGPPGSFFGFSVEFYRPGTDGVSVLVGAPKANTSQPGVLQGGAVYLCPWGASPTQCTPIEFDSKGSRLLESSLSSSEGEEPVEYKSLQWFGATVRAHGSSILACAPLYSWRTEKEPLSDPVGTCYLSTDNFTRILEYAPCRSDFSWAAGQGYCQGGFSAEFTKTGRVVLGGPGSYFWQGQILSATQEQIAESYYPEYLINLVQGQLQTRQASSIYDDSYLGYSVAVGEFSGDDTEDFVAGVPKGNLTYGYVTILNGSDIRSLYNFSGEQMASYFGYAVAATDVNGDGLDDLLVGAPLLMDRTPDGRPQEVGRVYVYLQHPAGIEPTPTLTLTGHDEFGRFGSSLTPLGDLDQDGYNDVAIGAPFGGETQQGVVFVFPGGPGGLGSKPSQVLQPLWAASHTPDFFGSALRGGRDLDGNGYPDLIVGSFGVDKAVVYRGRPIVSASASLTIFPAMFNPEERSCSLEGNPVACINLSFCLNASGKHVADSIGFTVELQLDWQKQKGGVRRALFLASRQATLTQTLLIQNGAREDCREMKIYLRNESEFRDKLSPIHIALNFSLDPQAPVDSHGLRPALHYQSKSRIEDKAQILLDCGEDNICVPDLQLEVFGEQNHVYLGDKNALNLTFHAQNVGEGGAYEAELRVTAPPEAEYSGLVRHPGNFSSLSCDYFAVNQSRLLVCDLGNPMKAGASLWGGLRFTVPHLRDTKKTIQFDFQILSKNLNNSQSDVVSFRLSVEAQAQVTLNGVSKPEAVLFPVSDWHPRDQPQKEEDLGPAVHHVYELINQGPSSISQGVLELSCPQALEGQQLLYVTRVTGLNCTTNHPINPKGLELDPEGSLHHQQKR
T2 sequence (P08648 895-1049 partner limits assumed): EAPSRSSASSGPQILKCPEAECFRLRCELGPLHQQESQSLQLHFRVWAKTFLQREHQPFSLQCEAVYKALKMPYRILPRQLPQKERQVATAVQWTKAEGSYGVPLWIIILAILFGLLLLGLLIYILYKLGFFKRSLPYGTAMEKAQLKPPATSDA
T2 sequence (P05556 21-798): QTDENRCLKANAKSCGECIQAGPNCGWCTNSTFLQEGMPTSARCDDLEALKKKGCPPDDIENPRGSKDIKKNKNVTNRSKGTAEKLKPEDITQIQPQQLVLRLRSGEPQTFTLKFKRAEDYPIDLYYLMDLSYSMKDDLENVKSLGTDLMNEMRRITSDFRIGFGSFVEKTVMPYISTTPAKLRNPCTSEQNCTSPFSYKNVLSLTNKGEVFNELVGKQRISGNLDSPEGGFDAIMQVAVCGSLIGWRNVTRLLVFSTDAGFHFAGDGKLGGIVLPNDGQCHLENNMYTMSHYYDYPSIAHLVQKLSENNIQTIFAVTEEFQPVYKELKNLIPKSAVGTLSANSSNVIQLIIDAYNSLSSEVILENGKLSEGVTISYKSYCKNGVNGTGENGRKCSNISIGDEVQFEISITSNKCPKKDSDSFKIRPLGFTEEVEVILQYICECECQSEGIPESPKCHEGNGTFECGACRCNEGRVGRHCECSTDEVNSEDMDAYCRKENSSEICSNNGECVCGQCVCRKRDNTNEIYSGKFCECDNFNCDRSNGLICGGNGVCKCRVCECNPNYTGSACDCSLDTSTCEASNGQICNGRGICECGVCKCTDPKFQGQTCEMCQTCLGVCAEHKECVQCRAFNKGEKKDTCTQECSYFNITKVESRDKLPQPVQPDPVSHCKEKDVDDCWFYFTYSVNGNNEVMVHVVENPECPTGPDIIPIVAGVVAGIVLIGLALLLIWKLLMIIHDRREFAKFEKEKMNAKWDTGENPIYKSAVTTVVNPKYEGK

[4] = mouse, in vivo
integrin αvβ3 = integrin αvβ3 (UniProt P05106+P06756); assay type: cell-based
Chain of integrin αvβ3 (P06756 31-1048): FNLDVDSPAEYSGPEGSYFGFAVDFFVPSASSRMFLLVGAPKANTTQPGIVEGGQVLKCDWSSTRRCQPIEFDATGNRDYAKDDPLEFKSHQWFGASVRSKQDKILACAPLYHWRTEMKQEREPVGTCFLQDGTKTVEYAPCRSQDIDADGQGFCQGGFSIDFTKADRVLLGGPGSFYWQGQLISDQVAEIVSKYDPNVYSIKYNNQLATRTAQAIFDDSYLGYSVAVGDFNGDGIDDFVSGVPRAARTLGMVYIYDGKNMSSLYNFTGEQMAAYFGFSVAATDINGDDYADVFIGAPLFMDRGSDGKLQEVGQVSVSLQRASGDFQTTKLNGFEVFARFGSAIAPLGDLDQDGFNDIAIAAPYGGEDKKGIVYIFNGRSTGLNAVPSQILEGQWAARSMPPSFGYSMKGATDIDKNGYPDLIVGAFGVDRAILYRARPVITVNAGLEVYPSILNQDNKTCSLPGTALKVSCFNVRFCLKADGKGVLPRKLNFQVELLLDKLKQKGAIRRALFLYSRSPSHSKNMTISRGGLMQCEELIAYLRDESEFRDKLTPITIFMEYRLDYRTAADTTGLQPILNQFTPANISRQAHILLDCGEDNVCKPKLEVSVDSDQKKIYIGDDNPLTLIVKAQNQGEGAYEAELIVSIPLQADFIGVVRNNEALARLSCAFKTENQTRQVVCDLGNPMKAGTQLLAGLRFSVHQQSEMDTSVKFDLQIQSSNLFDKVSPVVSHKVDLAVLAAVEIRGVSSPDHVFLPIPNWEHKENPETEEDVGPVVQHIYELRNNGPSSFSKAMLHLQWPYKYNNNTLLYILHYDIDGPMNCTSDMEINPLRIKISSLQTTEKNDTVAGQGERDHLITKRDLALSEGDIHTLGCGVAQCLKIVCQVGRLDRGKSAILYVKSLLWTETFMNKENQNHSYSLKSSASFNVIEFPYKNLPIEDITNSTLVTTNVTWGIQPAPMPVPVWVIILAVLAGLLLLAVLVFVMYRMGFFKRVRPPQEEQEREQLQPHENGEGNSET
Chain of integrin αvβ3 (P05106 27-788): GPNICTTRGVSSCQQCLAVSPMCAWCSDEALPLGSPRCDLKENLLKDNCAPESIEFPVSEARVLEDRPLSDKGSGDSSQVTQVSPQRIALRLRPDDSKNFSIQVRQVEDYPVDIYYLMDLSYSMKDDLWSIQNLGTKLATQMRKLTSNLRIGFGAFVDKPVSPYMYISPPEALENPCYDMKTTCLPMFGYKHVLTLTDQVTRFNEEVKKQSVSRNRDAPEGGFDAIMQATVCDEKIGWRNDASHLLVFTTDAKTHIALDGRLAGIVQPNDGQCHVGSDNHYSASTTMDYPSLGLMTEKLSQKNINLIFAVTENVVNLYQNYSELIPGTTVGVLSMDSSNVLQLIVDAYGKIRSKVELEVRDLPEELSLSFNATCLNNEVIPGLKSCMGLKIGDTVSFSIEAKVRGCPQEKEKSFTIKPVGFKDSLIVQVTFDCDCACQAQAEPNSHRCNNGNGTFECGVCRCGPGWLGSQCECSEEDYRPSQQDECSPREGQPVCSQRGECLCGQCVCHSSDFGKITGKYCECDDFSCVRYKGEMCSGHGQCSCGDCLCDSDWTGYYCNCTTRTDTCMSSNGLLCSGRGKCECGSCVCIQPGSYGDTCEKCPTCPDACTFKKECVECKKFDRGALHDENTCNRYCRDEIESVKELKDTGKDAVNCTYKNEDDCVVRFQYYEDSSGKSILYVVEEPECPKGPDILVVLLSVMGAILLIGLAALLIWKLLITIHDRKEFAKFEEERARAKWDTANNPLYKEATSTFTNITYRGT

Molecule | BMC [2] | BMD [2] | C-terminal telopeptide of COL(1)α1 chain [2] | IC50 [3] | other results
NCCCC(O)(P(=O)(O)O)P(=O)(O)O [Alendronate, alendronate, reference compound] |  |  |  |  | ovariectomy-induced increase in osteoclast activity (serum C-terminal telopeptide of type-I collagen) [1]: reversed the ovariectomy-induced increase in osteoclast activity
ARGDDL: rhodostomin variant with RGD motif ^48Ala-Arg-Gly-Asp-Asp-Leu^53, SEQ ID NO: 32 | 0.624 ± 0.007 g | 0.093 ± 0.001 g/cm^2 | 389 ± 16.4 ng/mL | 0.00802 µM | 
PGP: rhodostomin variant having a RGD motif variant ^48PRGDGP^53, SEQ ID NO: 42 |  |  |  |  | IC50 (integrin αIIbβ3; read-out: IC50 αIIbβ3): 0.5 µM; IC50 (integrin αIIbβ3; read-out: IC50 αllbβ3/Fg): 2.59 µM; IC50 (platelet aggregation): 0.283 µM; IC50 (integrin α5β1; read-out: IC50 α5β1): 4 µM; IC50 (integrin α5β1; read-out: IC50 α5β1/Fn): 3.46 µM
PRGDDL: rhodostomin variant with RGD motif ^48Pro-Arg-Gly-Asp-Asp-Leu^53, SEQ ID NO: 33 |  |  |  | 0.00315 µM | 
PRLDDL: rhodostomin variant with RGD motif ^48Pro-Arg-Leu-Asp-Asp-Leu^53, SEQ ID NO: 37 | 0.563 ± 0.056 g | 0.091 ± 0.002 g/cm^2 | 410 ± 25.1 ng/mL |  | 
RID: rhodostomin variant with RGD motif ^48Pro-Arg-Ile-Asp-Met-Pro^53, SEQ ID NO: 39 | 0.622 ± 0.004 g | 0.091 ± 0.001 g/cm^2 | 391 ± 12 ng/mL | 0.00582 µM | 
rhodostomin [reference compound] | 0.619 ± 0.006 g | 0.090 ± 0.001 g/cm^2 | 397 ± 13.6 ng/mL | 0.00552 µM | IC50 (integrin αIIbβ3; read-out: IC50 αIIbβ3): 0.021 µM; IC50 (integrin αIIbβ3; read-out: IC50 αllbβ3/Fg): 0.021 µM; IC50 (platelet aggregation): 0.083 µM; effect on tail bleeding (clotting) time [4]: pronounced effect in prolonging the clotting time; IC50 (integrin αvβ3; read-out: IC50 αvβ3): 0.013 µM; IC50 (integrin αvβ3; read-out: IC50 αvβ3/Fg): 0.013 µM
